Experimental data taken from patent US20120165319A1, “INHIBITORS OF INTERLEUKIN-1 BETA CONVERTING ENZYME” (VERTEX PHARMACEUTICALS INCORPORATED, priority 1995, published 2012).
Entries after “also recorded” stand apart in the source; their conditions may differ. Like-named read-outs stand apart in the source and are kept apart here.

Experiments:
[1] = Pharmacokinetic studies in the mouse (i.v. clearance, plasma levels); assay type: in vivo; settings: 25 mg/kg; for clearance: CD-1, plasma
Summary of the method: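 Male CD-1 mice (26-31 g) given 25 mg/kg i.v. via tail vein in 0.02M Tris (2.5 mg/ml), groups of 5 per timepoint from 2 to 120 min. Heparinized plasma deproteinated (perchloric acid or acetonitrile) and analysed by reverse-phase HPLC with UV or MS detection against plasma-spiked calibration (0.5 to 50 μg/ml).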

[2] = test system: IL-1β production, LPS-challenged mice; assay: In vivo acute assay for efficacy as anti-inflammatory agent: LPS-induced IL-1β production in mice; parameters: species or system mouse; settings: for inhibition at 50 mg/kg: Mus musculus, po, LPS challenged mice, compound PO, read-out: percent inhibition of IL-1β production
Summary of the method: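 Serum IL-1β was measured by ELISA 7 h after an IP dose of 20 mg/kg LPS in CD1 mice, n=6 per group. Compounds in olive oil/DMSO/ethanol 90:5:5 were injected IP 1 h post-LPS (some analogs were dosed at challenge), and separate groups received 50 mg/kg by oral gavage.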

[3] = 0 h, administered 0 h relative to time of LPS challenge
[4] = 1 h, administered +1 h relative to time of LPS challenge
[5] = 2 h, administered −2 h relative to time of LPS challenge
[6] = 1 h, administered −1 h relative to time of LPS challenge

SMILES | melting point | clearance ([1]; iv, mouse) [mL/min/kg] | inhibition at 50 mg/kg [2, 3] [%] | inhibition at 50 mg/kg [2, 5] [%] | other results
Cc1ccccc1C(=O)N[C@H]1CCC(=O)N2CCC[C@@H](C(=O)N[C@H](C=O)CC(=O)O)N2C1=O [Compound 404] | 156 to 159 °C | 64 | 6 | 55 | inhibition at 50 mg/kg [2, 4]: 56%
CC(C)CC(=O)Nc1ccc(C(=O)N[C@H]2CCC(=O)N3CCC[C@@H](C(=O)N[C@H](C=O)CC(=O)O)N3C2=O)cc1 [Compound 487, [3S(1S,9S)]3-{6,10-Dioxo-9-[4-(3-methylbutan-1-oylamino)benzamido]-1,2,3,4,7,8,9,10-octahydro-6H-pyridazino[1,2-a][1,2]diazepine-1-carboxamido}-4-oxobutanoic acid] | 176 to 180 °C | – | 20 | 17 | –
O=C(O)C[C@H](NC(=O)[C@@H]1CCCN2C(=O)CC[C@H](NC(=O)c3ccccc3)C(=O)N12)C(=O)COC(=O)c1c(Cl)cccc1Cl [Compound 217e, [3S(1S,9S)]3-(9-Benzoylamino-6,10-dioxo-1,2,3,4,7,8,9,10-octahydro-6H-pyridazino[1,2-a][1,2]-diazepine-1-carboxamido)-5-(2,6-dichlorobenzoyloxy)-4-oxopentanoic acid] | – | > 50 | – | – | mean plasma concentration at 60-120 minutes ([1]; male CD-1 mice, i.v. tail vein): < 0.2 µg/mL; concentration at 2 min ([1]; mouse, plasma, iv, male CD-1 mice, i.v. tail vein, read-out: mean plasma level at 2 minutes): ~55 µg/mL; inhibition of IL-1β secretion/production after IP administration ([2]; LPS-challenged CD1 mice, IP injection one hour after LPS, result in words): significant inhibition; also recorded: inhibits IL-1β production
COC(=O)N[C@H]1CCC(=O)N2CCC[C@@H](C(=O)N[C@@H](CC(=O)O)C(=O)CSc3ncccn3)N2C1=O [Compound 511c, [3S(1S,9S)]3-[6,10-Dioxo-9-(methoxycarbonyl)-amino-1,2,3,4,7,8,9,10-octahydro-6H-pyridazino[1,2-a][1,2]diazepine-1-carboxamido]-5-(2-mercaptopyrimidine)-4-oxopentanoic acid] | 105 °C (dec.) | – | – | – | clearance ([1]; iv, mouse, Table 17): 78 mL/min/kg
CC(=O)Nc1ccc(C(=O)NN2CCC(=O)N3CCC[C@@H](C(=O)N[C@H](C=O)CC(=O)O)N3C2=O)cc1 [Compound 1018, [3S(4S)]3-{7-[(4-Acetamido)benzamido]-6,10-Dioxo-1,2,3,4,7,8,9,10-octahydro-6H-pyridazino[1,2-a][1,2,4]-triazepine-4-carboxamido}-4-oxobutanoic acid] | 235 to 240 °C | – | – | – | –
O=C1C[C@H](NC(=O)[C@@H]2CCCN3C(=O)CC[C@H](NC(=O)c4ccccc4)C(=O)N23)[C@H](OCc2ccccc2)O1 [Compound 2100o, [1S,9S(2R,3S)]9-Benzoylamino-N-(2-benzyloxy-5-oxotetrahydrofuran-3-yl)-6,10-dioxo-1,2,3,4,7,8,9,10-octahydro-6H-pyridazino[1,2-a][1,2]diazepine-1-carboxamide] | 115 to 117 °C | – | 68 | 31 | inhibition at 50 mg/kg [2, 4]: 64%; inhibition at 50 mg/kg [2, 6]: 44%
O=C[C@H](CC(=O)O)NC(=O)[C@@H]1CCCN2C(=O)CC[C@H](NC(=O)c3ccc(NC(=O)Cc4ccccc4)cc3)C(=O)N12 [Compound 486, [3S(1S,9S)]3-{6,10-Dioxo-1,2,3,4,7,8,9,10-octahydro-9-[4-(phenylacetamido)benzamido]-6H-pyridazino[1,2-a][1,2]diazepine-1-carboxamido}-4-oxobutanoic acid] | 165 to 169 °C | – | 15 | 19 | –
O=C[C@H](CC(=O)O)NC(=O)[C@@H]1CCCN2C(=O)CCN(NC(=O)c3ccc4c(c3)OCO4)C(=O)N12 [Compound 1015, [3S(4S)]3-[6,10-Dioxo-7-(3,4-methylenedioxybenzoylamino)-1,2,3,4,7,8,9,10-octahydro-6H-pyridazino[1,2-a][1,2,4]triazepine-4-carboxamido]-4-oxobutanoic acid] | 170 to 175 °C | – | 28 | 15 | –
O=C1C[C@H](NC(=O)[C@@H]2CCCN3C(=O)CC[C@H](NC(=O)c4ccccc4)C(=O)N23)C(OCc2ccccc2)O1 (single isomer, unassigned) [Compound 2100n] | 112 to 115 °C | – | 64 | 21 | inhibition at 50 mg/kg [2, 4]: 73%; inhibition at 50 mg/kg [2, 6]: 9%
O=C[C@H](CC(=O)O)NC(=O)[C@@H]1CCCN2C(=O)CCN(NC(=O)c3ccccc3)C(=O)N12 [Compound 265, [3S(4S)]3-(7-Benzamido-6,10-dioxo-1,2,3,4,7,8,9,10-octahydro-6H-pyridazino[1,2-a][1,2,4]triazepine-4-carboxamido)-4-oxobutanoic acid] | – | 23 | – | – | IP % Inhibition ([2]; % inhibition of IL-β production, LPS-challenged mice, IP, 50 mg/kg (Table 3)): 30%; POS Inhibition ([2]; % inhibition of IL-β production, LPS-challenged mice, PO, 50 mg/kg (Table 3)): 27%

Further lines, with some results ahead:

melting point | clearance ([1]; iv, mouse) [mL/min/kg] | SMILES | inhibition at 50 mg/kg [2, 3] [%] | inhibition at 50 mg/kg [2, 5] [%] | other results
121 to 127 °C | – | O=C1C[C@H](NC(=O)[C@@H]2CCCN3C(=O)CC[C@H](NC(=O)c4cccc5ccccc45)C(=O)N23)C(OCc2ccccc2)O1 (stereo partly drawn) [Compound 213v, [1S,9S(2RS,3S)]N-(2-Benzyloxy-5-oxotetrahydrofuran-3-yl)-6,10-dioxo-9-(naphth-1-oylamino)-1,2,3,4,7,8,9,10-octahydro-6H-pyridazino[1,2-a][1,2]diazepine-1-carboxamide] | – | – | clearance ([1]; iv, mouse, Table 17): 41 mL/min/kg
110 to 115 °C | 31 | O=C[C@H](CC(=O)O)NC(=O)[C@@H]1CCCN2CCC[C@H](NC(=O)c3ccccc3)C(=O)N12 [Compound 246] | – | – | –
157 to 165 °C | 41 | O=C[C@H](CC(=O)O)NC(=O)[C@@H]1CCCN2C(=O)CC[C@H](NC(=O)c3cccc4ccccc34)C(=O)N12 [Compound 408, [3S(1S,9S)]3-[6,10-Dioxo-9-(naphth-1-oylamino)-1,2,3,4,7,8,9,10-octahydro-6H-pyridazino[1,2-a][1,2]diazepine-1-carboxamido]-4-oxobutanoic acid] | – | – | –
95 to 100 °C | 109 | O=C(O)C[C@H](NC(=O)[C@@H]1CCCN2C(=O)CC[C@H](NC(=O)c3ccccc3)C(=O)N12)C(=O)CSCc1ccccc1Cl [Compound 226e, [3S(1S,9S)]3-(9-Benzoylamino-6,10-dioxo-1,2,3,4,7,8,9,10-octahydro-6H-pyridazino[1,2-a][1,2]-diazepine-1-carboxamido)-5-(2-chlorophenyl)methylthio-4-oxopentanoic acid] | – | – | –
158 to 162 °C | 26 | O=C[C@H](CC(=O)O)NC(=O)[C@@H]1CCCN2C(=O)CC[C@H](NC(=O)c3ccc4c(c3)OCO4)C(=O)N12 [Compound 415, [3S(1S,9S)]3-[6,10-Dioxo-9-(3,4-methylenedioxybenzoylamino)-1,2,3,4,7,8,9,10-octahydro-6H-pyridazino[1,2-a][1,2]diazepine-1-carboxamido]-4-oxobutanoic acid] | – | – | –
145 to 155 °C | 33 | COc1cc(C(=O)N[C@H]2CCC(=O)N3CCC[C@@H](C(=O)N[C@H](C=O)CC(=O)O)N3C2=O)cc(OC)c1OC [Compound 417, [3S(1S,9S)]3-[6,10-Dioxo-1,2,3,4,7,8,9,10-octahydro-9-(3,4,5-trimethoxybenzoylamino)-6H-pyridazino[1,2-a][1,2]diazepine-1-carboxamido]-4-oxobutanoic acid] | – | – | –
167 to 180 °C | 89 | O=C(O)C[C@H](NC(=O)[C@@H]1CCCN2C(=O)CC[C@H](NC(=O)c3ccccc3)C(=O)N12)C(=O)c1nc2cc(Cl)cc(Cl)c2o1 [Compound 223e, [3S(1S,9S)]3-(9-Benzoylamino-6,10-dioxo-1,2,3,4,7,8,9,10-octahydro-6H-pyridazino-[1,2-a][1,2]diazepine-1-carboxamido)-4-(5,7-dichlorobenzoxazol-2-yl)-4-oxobutanoic acid] | – | – | –
210 to 215 °C | – | O=C[C@H](CC(=O)O)NC(=O)[C@@H]1CCCN2C(=O)CCN(NC(=O)c3cc4ccccc4[nH]3)C(=O)N12 [Compound 1075, [3S(4S)]3-[6,10-Dioxo-7-(indole-2-carboxamido)-1,2,3,4,7,8,9,10-octahydro-6H-pyridazino[1,2-a][1,2,4]triazepine-4-carboxamido]-4-oxobutanoic acid] | – | – | –
110 °C (dec.) | 130 | COC(=O)N[C@H]1CCC(=O)N2CCC[C@@H](C(=O)N[C@@H](CC(=O)O)C(=O)COC(=O)c3c(C)cccc3C)N2C1=O [Compound 285, [3S(1S,9S)]5-(2,6-Dimethylbenzoyloxy)-3-[6,10-dioxo-9-(methoxycarbonyl)amino-1,2,3,4,7,8,9,10-octahydro-6H-pyridazino[1,2-a][1,2]diazepine-1-carboxamido]-4-oxopentanoic acid] | – | – | –
– | 79 | O=C[C@H](CC(=O)O)NC(=O)[C@@H]1CCCN2C(=O)CC[C@H](NC(=O)CCc3ccccc3)C(=O)N12 [Compound 47a, [3S(1S,9S)]3-(6,10-Dioxo-octahydro-9-(3-phenylpropionylamino)-6H-pyridazino[1,2-a][1,2]diazepine-1-carboxamido)-4-oxobutanoic acid] | – | – | –
